# Assays:
# leukemic cells L1210 [1] = experiment: Antitumor activity on CDF1 mouse leukemia induced by leukemic cells L1210; format: in vivo, CDF1 mice; settings: 10 consecutive days
# Procedure: (B) Antitumor activitiy on CDF1 mouse leukemia induced by leukemic cells L1210 of mice.
# Leukemic cells L1210 of mice were intraperitoneally transplanted in an amount of 1×10^5 per mouse in CDF1 mice. Starting 24 hours after the transplantation, 3'-deamino-3'-morpholino-carminomycin was intraperitoneally or orally administered to the mice for 10 consecutive days. The survival rate (T/C, %) was calculated in comparison with a control group (to which physiological saline was administered).
# leukemic cells L1210 [2] = experiment: Inhibition of DNA synthesis (14C-thymidine incorporation) in cultivated leukemic cells L1210 of mice; format: cell-based; settings: Mus musculus, L1210, 1 h, 60 minutes, 37° C., RPMI 1640, 10% calf serum
# Procedure: (§1) (A) Activity of inhibiting growth, DNA synthesis and RNA synthesis of cultivated leukemic cells L1210 of mice.
# (§2) Separately, the above cultivated cells L1210 were suspended in a concentration of 1×10^5 /ml in an RPMI 1640 medium containing 10% of calf serum, and cultivated for 1 to 2 hours in an incubator containing carbon dioxide gas at 37° C. Then, 3'-deamino-3'-morpholino-carminomycin was added in various concentrations,and 15 minutes later, ^14 C-uridine (0.05 μCi/ml) and ^14 C-thymidine (0.05 μCi/ml) were added. Thus, the cells were cultivated at 37° C. for 60 minutes. A 10% aqueous solution of trichloroacetic acid was added to the reaction liquor to stop the reaction and simultaneously precipitate an acid-insoluble matter. The acid-insoluble matter was washed three times with a 10-5% aqueous solution of trichloroacetic acid, and then dissolved in formic acid. The radioactivity of the acid-insoluble matter was measured. From the ratio of incorporated radiation to that of a control group, the concentrations which inhibited radiation by 50% were measured.
# leukemic cells L1210 [3] = experiment: Inhibition of RNA synthesis (14C-uridine incorporation) in cultivated leukemic cells L1210 of mice; format: cell-based; settings: Mus musculus, L1210, 1 h, 60 minutes, 37° C., RPMI 1640, 10% calf serum
# Procedure: as §1, §2
# [4] = Acute toxicity by oral administration on CDF1 mouse; settings: in vivo
# Source text: (C) Acute toxicity by oral administration on CDF1 mouse.
# leukemic cells L1210 [5] = experiment: Inhibition of growth of cultivated leukemic cells L1210 of mice; format: cell-based; settings: for IC50: Mus musculus, growth, RPMI 1640, 20% calf serum, 37° C.
# Procedure: as §1
# For example, L1210 cells were inoculated in a concentration of 5×10^4 /ml in an RPMI 1640 culture medium containing 20% calf serum (Rosewell Memorial Park Institute 1640), and simultaneously 3'-deamino-3'-morpholino-carminomycin was added in various concentrations. Thus, the cells were cultivated in an incubator containing carbon dioxide gas at 37° C. The 50% growth inhibitory concentration with respect to a control group was determined.
# Staph. aureus Smith = experiment: Minimum inhibitory concentration by broth dilution method; format: cell-based; settings: Staphylococcus aureus
# Source text: (§3) To illustrate such activity, minimum inhibitory concentrations (as determined by the broth dilution method) of the compound against several bacteria are shown in the Table below.
# Sarcina lutea PCI 1001 = experiment: as above; format: cell-based; settings: Micrococcus luteus, PCI1001
# Source text: as §3
# [6] = system: Corynebacterium bovis 1810; experiment: as above; format: cell-based
# Source text: as §3
# [7] = system: Bacillus subtilis NRRL B-558; experiment: as above; format: cell-based; settings: NRRLB558
# Source text: as §3
# [8] = system: Pseudomonas aeruginosa A3; experiment: as above; format: cell-based
# Source text: as §3
# [9] = system: Bacillus cereus ATCC 10702; experiment: as above; format: cell-based; settings: ATCC10702
# Source text: as §3
# Staph. aureus FDA 209P = experiment: as above; format: cell-based; settings: Staphylococcus aureus, FDA209P
# Source text: as §3
# [10] = system: Micrococcus flavus FDA 16; experiment: as above; format: cell-based; settings: FDA16
# Source text: as §3
# P-388 leukemia = settings: vs P-388 leukemia in mice; reported in U.S. Pat. No. 4,301,277; cited from earlier work
structure (smiles),measurement,setting,value
CC(=O)[C@]1(O)Cc2c(O)c3c(c(O)c2[C@@H](O[C@H]2C[C@H](N4CCOCC4)[C@H](O)[C@H](C)O2)C1)C(=O)c1c(O)cccc1C3=O [3'-Deamino-3'-morpholino-carminomycin],T/C % of the survival period,"leukemic cells L1210 [1]; i.p., 0.39 μg/mouse/day",94%
same,T/C % of the survival period,"leukemic cells L1210 [1]; i.p., 0.78 μg/mouse/day",122%
same,T/C % of the survival period,"leukemic cells L1210 [1]; i.p., 1.56 μg/mouse/day",94%
same,T/C % of the survival period,"leukemic cells L1210 [1]; i.p., 3.125 μg/mouse/day",122%
same,T/C % of the survival period,"leukemic cells L1210 [1]; i.p., 6.25 μg/mouse/day",122%
same,T/C % of the survival period,"leukemic cells L1210 [1]; i.p., 12.5 μg/mouse/day",194%
same,toxicity (footnote *),"leukemic cells L1210 [1]; i.p., 12.5 μg/mouse/day",Toxic
same,T/C % of the survival period,"leukemic cells L1210 [1]; p.o., 0.39 μg/mouse/day",100%
same,T/C % of the survival period,"leukemic cells L1210 [1]; p.o., 0.78 μg/mouse/day",111%
same,T/C % of the survival period,"leukemic cells L1210 [1]; p.o., 1.56 μg/mouse/day",106%
same,T/C % of the survival period,"leukemic cells L1210 [1]; p.o., 3.125 μg/mouse/day",133%
same,T/C % of the survival period,"leukemic cells L1210 [1]; p.o., 6.25 μg/mouse/day",167%
same,T/C % of the survival period,"leukemic cells L1210 [1]; p.o., 12.5 μg/mouse/day",206%
same,IC50,leukemic cells L1210 [2],0.09 µg/mL
same,IC50,leukemic cells L1210 [3],0.013 µg/mL
same,LD50,[4],1.56 mg/kg
same,IC50,"leukemic cells L1210 [5]; L1210, 24 h, 1 day, read-out: IC50 growth, 1 day after",0.01 µg/mL
same,IC50,"leukemic cells L1210 [5]; L1210, 48 h, 2 days, read-out: IC50 growth, 2 days after",0.0009 µg/mL
same,inhibition of growth and nucleic acid synthesis (in words),leukemic cells L1210 [5]; cultivated L1210 cells of mice,markedly inhibit the growth and nucleic acid synthesis
same,MIC,Staph. aureus Smith,6.25 µg/mL
same,MIC,Sarcina lutea PCI 1001,0.78 µg/mL
same,MIC,[6],0.39 µg/mL
same,MIC,[7],1.56 µg/mL
same,MIC,[8],> 100 µg/mL
same,MIC,[9],0.78 µg/mL
same,MIC,Staph. aureus FDA 209P,0.78 µg/mL
same,MIC,[10],1.56 µg/mL
"COc1cccc2c1C(=O)c1c(O)c3c(c(O)c1C2=O)C[C@@](O)(C(=O)CO)C[C@@H]3O[C@H]1C[C@H](N2CCOCC2)[C@H](O)[C@H](C)O1 [3'-deamino-3'-morpholino-adriamycin, 3'-Deamino-3'-morpholino-adriamycin]",antitumor potency relative to adriamycin and daunomycin starting materials,P-388 leukemia,significantly greater antitumor potency
"COc1cccc2c1C(=O)c1c(O)c3c(c(O)c1C2=O)C[C@@](O)(C(C)=O)C[C@@H]3O[C@H]1C[C@H](N2CCOCC2)[C@H](O)[C@H](C)O1 [3'-deamino-3'-morpholino-daunomycin, 3'-Deamino-3'-morpholinodaunomycin]",antitumor potency relative to adriamycin and daunomycin starting materials,P-388 leukemia,significantly greater antitumor potency
